The record followed here is EP4722201A1, “3-PHENYLISOXAZOLINE-5-CARBOXAMIDE COMPOUND, AND PREPARATION METHOD THEREFOR, HERBICIDAL COMPOSITION THEREOF AND USE THEREOF” (Jiangsu Flag Chemical Industry Co., Ltd, priority 2023, dated 2024).

Holding throughout (assay): Indoor herbicide activity determination, Seed Treatment; pre-emergence (soil spray)
Common to all, as to type: in vivo

For experiment [1], the system named is Cyperus iria. The conditions noted are these: read-out: Herbicidal activities (inhibition rate) Cyperus iria; for inhibition at 120 g/ha: 120 g a.i./ha; for inhibition at 60 g/ha: 60 g a.i./ha. The text has this:
(§1) The testing method for herbicide activity of the compound of the present invention was as follows:
(§2) Seed Treatment; pre-emergence: quantitative seeds of gramineous weeds (Echinochloa crusgalli, Eleusine indica, Digitaria sanguinalis, Alopecurus japonicus, Beckmannia syzigachne, Leptochloa chinensis, Polypogon fugax, Alopecurus aequalis, Lolium multiflorum, Poa annua, Aegilops tauschii, Avena fatua, Alopecurus myosuroides, Alopecurus japonicus and Alopecurus aequalis), broad-leaved weeds (Eclipta prostrata, Amaranthus retroflexus, Rorippa indica, Malachium aquaticum, Veronica polita, Conyza canadensis, Sesbania cannabina, Sagittariatrifolia and Schoenoplectiella juncoides), and Cyperus iria were sown in plastic pots having a diameter of 7 cm and holes at the bottom and filled with nutrient soil (sandy soil, pH 6.1, organic matter 1%) respectively, the seeds were covered with an appropriate amount of soil after being sown, then the soil was wetted with water from the bottom, the seeds were cultured in a constant-temperature illuminated culture room for 24 h, and the soil was sprayed by using a 3WP-2000 traveling spray tower produced by the Nanjing Institute of Agricultural Mechanization of the Ministry of Agriculture, where a rotational speed of a main shaft was 96 mm/r, a spray height was 300 mm, an effective spraying range of a nozzle was 350 mm, a spray area was 0.35 m^2, and a flow rate at the nozzle was 390 mL/min.
(§3) Post-emergence: an appropriate quantity of seeds of gramineous weeds (Echinochloa crusgalli, Eleusine indica, Digitaria sanguinalis, Alopecurus japonicus, Beckmannia syzigachne, Leptochloa chinensis, Polypogon fugax, Alopecurus aequalis, Lolium multiflorum, Poa annua, Aegilops tauschii, Avena fatua, Alopecurus myosuroides, Alopecurus japonicus and Alopecurus aequalis), broad-leaved weeds (Eclipta prostrata, Amaranthus retroflexus, Rorippa indica, Malachium aquaticum, Veronica polita, Conyza canadensis, Sesbania cannabina, Sagittariatrifolia and Schoenoplectiella juncoides), and Cyperus iria were sown in plastic pots having a diameter of 7 cm and holes at the bottom and filled with nutrient soil (sandy soil, pH 6.1, organic matter 1%) respectively, the seeds were covered with an appropriate amount of soil after being sown, then the soil was wetted with water from the bottom, the seeds were cultured in a constant-temperature illuminated culture room until a 2-4 leaf stage, and stems and leaves underwent spray treatment. After the treatment, the test materials were placed in a laboratory and cultured in the constant-temperature illuminated culture room after the liquid was naturally dry in the shade, and results were determined 21 days later. Inhibition rate of fresh weight % = (1−(fresh weight of treated plants)/(fresh weight of control plants)) × 100% [formula]

Experiment [2] relates to Eleusine indica.
From the text: as §1, §2, §3

Experiment [3] relates to Eclipta prostrata. Conditions: read-out: Herbicidal activities (inhibition rate) Eclipta prostrata; for inhibition at 120 g/ha: 120 g a.i./ha; for inhibition at 60 g/ha: 60 g a.i./ha.
From the text: as §1, §2, §3

The subject of experiment [4] is Alopecurus japonicus.
From the text: as §1, §2, §3

Experiment [5] concerns Digitaria sanguinalis. The conditions noted are these: read-out: Herbicidal activities (inhibition rate) Digitaria sanguinalis; for inhibition at 60 g/ha: 60 g a.i./ha.
From the text: as §1, §2, §3

For experiment [6], the system named is Lolium multiflorum.
From the text: as §1, §2, §3

Experiment [7] has as its system Leptochloa chinensis.
From the text: as §1, §2, §3

In experiment [8] the test system is Alopecurus myosuroides.
From the text: as §1, §2, §3

The subject of experiment [9] is Aegilops tauschii. The conditions noted are these: read-out: Herbicidal activities (inhibition rate) Aegilops tauschii; for inhibition at 60 g/ha: 60 g a.i./ha.
From the text: as §1, §2, §3

As a reminder, the inhibition is the percentage by which the read-out fell short of the control. As for `C=CC1(C(=O)N[C@H]2C[C@@H](C(=O)OC)C2)CC(c2cc(F)cc(F)c2)=NO1` (some centres unmarked) [I-3], the inhibition at 120 g/ha in experiment [1], in experiment [3] and in experiment [5] (120 g a.i./ha) was 80 to 100% throughout. Also, in experiment [2] (Dosage 240 g a.i./ha), the “Herbicidal activities, Eleusine indica (inhibition rate class)” value is listed as “A (A indicates that the inhibition rate was greater than or equal to 80% to 100%)”. The “Herbicidal activities, Alopecurus japonicus (inhibition rate class)” value in [4] (Dosage 240 g a.i./ha) was “A (A indicates that the inhibition rate was greater than or equal to 80% to 100%)”. Further, the “Herbicidal activities, Lolium multiflorum (inhibition rate class)” value in experiment [6] (Dosage 240 g a.i./ha) is reported as “A (A indicates that the inhibition rate was greater than or equal to 80% to 100%)”. Moreover, the “Herbicidal activities, Leptochloa chinensis (inhibition rate class)” value in experiment [7] (Dosage 240 g a.i./ha) is listed as “A (A indicates that the inhibition rate was greater than or equal to 80% to 100%)”. Further, the “Herbicidal activities, Alopecurus myosuroides (inhibition rate class)” value in [8] (Dosage 240 g a.i./ha) was “A (A indicates that the inhibition rate was greater than or equal to 80% to 100%)”.
On to `C=C[C@]1(C(=O)N[C@H]2C[C@@H](C(=O)O[C@@H](C)COC)C2)CC(c2cc(F)cc(Cl)c2)=NO1` [I-34], for which the results for the inhibition at 60 g/ha in experiment [9], in experiment [1] and in experiment [3] were 60 to 80%, 60 to 80% and 80 to 100%, respectively. In addition, in experiment [2] (Dosage 120 g a.i./ha), the “Herbicidal activities, Eleusine indica (inhibition rate class)” value is listed as “A (A indicates that the inhibition rate was greater than or equal to 80% to 100%)”. Further, the “Herbicidal activities, Alopecurus japonicus (inhibition rate class)” value in [4] (Dosage 120 g a.i./ha) was “B (B indicates that the inhibition rate was greater than or equal to 60% to less than 80%)”. Moreover, the “Herbicidal activities, Lolium multiflorum (inhibition rate class)” value in experiment [6] (Dosage 120 g a.i./ha) was “B (B indicates that the inhibition rate was greater than or equal to 60% to less than 80%)”. Moreover, the “Herbicidal activities, Leptochloa chinensis (inhibition rate class)” value in [7] (Dosage 120 g a.i./ha) is “A (A indicates that the inhibition rate was greater than or equal to 80% to 100%)”. In addition, in [8] (Dosage 120 g a.i./ha), the “Herbicidal activities, Alopecurus myosuroides (inhibition rate class)” value is reported as “A (A indicates that the inhibition rate was greater than or equal to 80% to 100%)”.
For `C=C[C@]1(C(=O)N[C@H]2C[C@@H](C(=O)OCC3CC3)C2)CC(c2cc(F)cc(Cl)c2)=NO1` [I-35], the inhibition at 60 g/ha in experiment [9], in experiment [1] and in [3] was 60 to 80% in each case. In addition, the “Herbicidal activities, Eleusine indica (inhibition rate class)” value in experiment [2] (Dosage 120 g a.i./ha) is “A (A indicates that the inhibition rate was greater than or equal to 80% to 100%)”. For the same molecule, in [4] (Dosage 120 g a.i./ha), the “Herbicidal activities, Alopecurus japonicus (inhibition rate class)” value was “A (A indicates that the inhibition rate was greater than or equal to 80% to 100%)”. The “Herbicidal activities, Lolium multiflorum (inhibition rate class)” value in [6] (Dosage 120 g a.i./ha) is given as “A (A indicates that the inhibition rate was greater than or equal to 80% to 100%)”. Also, the “Herbicidal activities, Leptochloa chinensis (inhibition rate class)” value in experiment [7] (Dosage 120 g a.i./ha) is given as “A (A indicates that the inhibition rate was greater than or equal to 80% to 100%)”. Also, in experiment [8] (Dosage 120 g a.i./ha), the “Herbicidal activities, Alopecurus myosuroides (inhibition rate class)” value is listed as “A (A indicates that the inhibition rate was greater than or equal to 80% to 100%)”.
For the molecule `C=C[C@]1(C(=O)N[C@H]2C[C@@H](C(=O)NOC(C)C)C2)CC(c2cc(F)cc(Cl)c2)=NO1` [I-36], the inhibition at 60 g/ha in experiment [9], in experiment [1] and in experiment [3] was 60 to 80% throughout. For the same molecule, the “Herbicidal activities, Eleusine indica (inhibition rate class)” value in [2] (Dosage 120 g a.i./ha) is “A (A indicates that the inhibition rate was greater than or equal to 80% to 100%)”. In experiment [4] (Dosage 120 g a.i./ha), the “Herbicidal activities, Alopecurus japonicus (inhibition rate class)” value was “A (A indicates that the inhibition rate was greater than or equal to 80% to 100%)”. Besides, the “Herbicidal activities, Lolium multiflorum (inhibition rate class)” value in experiment [6] (Dosage 120 g a.i./ha) was “B (B indicates that the inhibition rate was greater than or equal to 60% to less than 80%)”. Also, the “Herbicidal activities, Leptochloa chinensis (inhibition rate class)” value in experiment [7] (Dosage 120 g a.i./ha) is recorded as “A (A indicates that the inhibition rate was greater than or equal to 80% to 100%)”. For the same molecule, in experiment [8] (Dosage 120 g a.i./ha), the “Herbicidal activities, Alopecurus myosuroides (inhibition rate class)” value is “A (A indicates that the inhibition rate was greater than or equal to 80% to 100%)”.
Take `C=C[C@]1(C(=O)N[C@H]2C=C[C@@H](C(=O)O)C2)CC(c2cc(F)cc(C(F)(F)F)c2)=NO1` [I-426]: the inhibition at 60 g/ha in experiment [1] is 80 to 100%; in experiment [3], 60 to 80%; in experiment [5], 80 to 100%. The “Herbicidal activities, Eleusine indica (inhibition rate class)” value in [2] (Dosage 120 g a.i./ha) is given as “A (A indicates that the inhibition rate was greater than or equal to 80% to 100%)”. The “Herbicidal activities, Alopecurus japonicus (inhibition rate class)” value in experiment [4] (Dosage 120 g a.i./ha) is “A (A indicates that the inhibition rate was greater than or equal to 80% to 100%)”. Moreover, the “Herbicidal activities, Lolium multiflorum (inhibition rate class)” value in experiment [6] (Dosage 120 g a.i./ha) is “A (A indicates that the inhibition rate was greater than or equal to 80% to 100%)”. The “Herbicidal activities, Leptochloa chinensis (inhibition rate class)” value in experiment [7] (Dosage 120 g a.i./ha) was “A (A indicates that the inhibition rate was greater than or equal to 80% to 100%)”. The “Herbicidal activities, Alopecurus myosuroides (inhibition rate class)” value in experiment [8] (Dosage 120 g a.i./ha) is listed as “A (A indicates that the inhibition rate was greater than or equal to 80% to 100%)”.
For the molecule `C=C[C@]1(C(=O)N[C@H]2C=C[C@@H](C(=O)OCCOC)C2)CC(c2cc(F)cc(C(F)(F)F)c2)=NO1` [I-443], the inhibition at 60 g/ha in experiment [1], in [3] and in experiment [5] was 80 to 100% each time. Besides, the “Herbicidal activities, Eleusine indica (inhibition rate class)” value in experiment [2] (Dosage 120 g a.i./ha) is given as “A (A indicates that the inhibition rate was greater than or equal to 80% to 100%)”. The “Herbicidal activities, Leptochloa chinensis (inhibition rate class)” value in experiment [7] (Dosage 120 g a.i./ha) is listed as “A (A indicates that the inhibition rate was greater than or equal to 80% to 100%)”.
Take `COC(=O)[C@@H]1C=C[C@H](NC(=O)C2(C)CC(c3cc(F)cc(C(F)(F)F)c3)=NO2)C1` (some centres unmarked) [I-495]: the results for the inhibition at 120 g/ha in [9] (120 g a.i./ha), in experiment [1] and in experiment [3] were 80 to 100%, 80 to 100% and 60 to 80%, respectively. Besides, in experiment [2] (Dosage 240 g a.i./ha), the “Herbicidal activity (inhibition rate class), Eleusine indica” value is on record as “A (A indicates that the inhibition rate was greater than or equal to 80% to 100%)”. The “Herbicidal activity (inhibition rate class), Alopecurus japonicus” value in experiment [4] (Dosage 240 g a.i./ha) was “A (A indicates that the inhibition rate was greater than or equal to 80% to 100%)”. For the same molecule, the “Herbicidal activity (inhibition rate class), Lolium multiflorum” value in [6] (Dosage 240 g a.i./ha) is reported as “A (A indicates that the inhibition rate was greater than or equal to 80% to 100%)”. The “Herbicidal activity (inhibition rate class), Leptochloa chinensis” value in [7] (Dosage 240 g a.i./ha) is recorded as “A (A indicates that the inhibition rate was greater than or equal to 80% to 100%)”. In addition, in experiment [8] (Dosage 240 g a.i./ha), the “Herbicidal activity (inhibition rate class), Alopecurus myosuroides” value was “A (A indicates that the inhibition rate was greater than or equal to 80% to 100%)”.
For `C[C@]1(C(=O)N[C@H]2C=C[C@@H](C(=O)OCCBr)C2)CC(c2cc(F)cc(C(F)(F)F)c2)=NO1` [I-501], the inhibition at 60 g/ha in experiment [1] lay in the range of 60 to 80%; in experiment [3], 60 to 80%; in experiment [5], 80 to 100%. In addition, in [2] (Dosage 120 g a.i./ha), the “Herbicidal activity (inhibition rate class), Eleusine indica” value is on record as “A (A indicates that the inhibition rate was greater than or equal to 80% to 100%)”. Besides, the “Herbicidal activity (inhibition rate class), Leptochloa chinensis” value in experiment [7] (Dosage 120 g a.i./ha) is given as “A (A indicates that the inhibition rate was greater than or equal to 80% to 100%)”.
For `COC(=O)[C@@H]1C=C[C@H](NC(=O)[C@@]2(C(F)(F)F)CC(c3cc(Cl)cc(C(F)(F)F)c3)=NO2)C1` [I-524], the results for the inhibition at 60 g/ha in [1], in [3] and in experiment [5] were 80 to 100%, 60 to 80% and 80 to 100%, respectively. Further, in experiment [2] (Dosage 120 g a.i./ha), the “Herbicidal activity (inhibition rate class), Eleusine indica” value was “A (A indicates that the inhibition rate was greater than or equal to 80% to 100%)”. Besides, the “Herbicidal activity (inhibition rate class), Alopecurus japonicus” value in [4] (Dosage 120 g a.i./ha) is given as “A (A indicates that the inhibition rate was greater than or equal to 80% to 100%)”. Moreover, the “Herbicidal activity (inhibition rate class), Leptochloa chinensis” value in experiment [7] (Dosage 120 g a.i./ha) is recorded as “A (A indicates that the inhibition rate was greater than or equal to 80% to 100%)”. The “Herbicidal activity (inhibition rate class), Alopecurus myosuroides” value in [8] (Dosage 120 g a.i./ha) is listed as “B (B indicates that the inhibition rate was greater than or equal to 60% to less than 80%)”.
